The test system of assay [1] is DSS colitis. Kind of assay: DSS colitis with fluconazole in the drinking water (anti-fungal therapy). The assay is classed as in vivo, mouse. To be noted: Clec7a−/− mice; for weight loss during colitis: fluconazole 0.5 mg/ml in drinking water for 14 days starting 2 days prior to DSS, 2.5% DSS 7 days, effect from day 9 (p<0.05). How it is done:
WT and Clec7a−/− mice were cohoused for three weeks prior the experiments. Alternatively, WT and Clec7a−/− littermates were used where indicated. For the induction of colitis, mice were given drinking water supplemented with 2.5% (w/v) Dextran sulphate sodium (DSS, MP Biomedicals, LLC, Aurora, Ohio) for 7 days and sacrificed at day 12. For ablation of intestinal fungi, mice were given Fluconazole (0.5 mg/ml, Sigma) in the drinking water for total of 14 days starting 2 days prior the induction of DSS colitis. In some experiments, prior and upon colitis induction, mice were supplemented every other day with four doses (1×108 yeast/mouse/dose) of Candida tropicalis or Saccharomycopsis fibuligera as shown in FIG. 19. Body weight, gross blood, and stool consistency were analyzed on a daily basis. Paraffin embedded colon tissues were sectioned and stained with H&E for pathology assessment. Assessment of the severity of colitis was measured by the disease activity index (DAI) as previously described.
LI-LP lymphocytes were isolated as previously described with some modifications. Briefly, colons were isolated, opened longitudinally, washed of fecal contents and then cut into 1 cm pieces. Intestinal pieces were transferred into HBSS medium (Sigma), supplemented with 5% fetal bovine serum (FBS) and 2 mM EDTA, and were shaken for 15 min at 37° C. The suspensions were filtered through a mesh and the filtrate containing the mucosa and mucosa associated microflora was used further for DNA isolation. The remaining tissue was washed, cut in small pieces and subsequently incubated in digestion medium consisting of RPMI 1640, 5% FBS, 0.5 mg/ml collagenase type VIII (Sigma), 5 U/ml DNase (Roche Diagnostics), 100 IU/ml penicillin and 100 μg/ml streptomycin for 30 min at 37° C. by gentle shaking. The cell suspensions were filtered through a mesh, and then centrifuged at 1300 rpm. Cell suspensions were cultured overnight and TNF-α production by colonic cells was measured by ELISA (BioLegend, San Diego, Calif.).
Cell suspensions were prepared from MLNs and the LI-LP as described above. Cells were incubated with 50 ng/ml phorbol 12-myristate 13-acetate (PMA; Sigma-Aldrich), 500 ng/ml ionomycin (Sigma-Aldrich) and 10 μg/ml Brefeldin A (BFA; Sigma-Aldrich) in complete RPMI media at 37° C. for 6 h. After surface staining with CD4, cells were permeabilized and intracellular cytokine staining was performed using APC-labeled anti-IFN-γ mAb (XMG1.2; BD Biosciences) and PE-labeled anti-IL-17 mAb (TC11-18H10; BD Biosciences) according to the manufacturer's instructions. Flow cytometry was performed using a LSRII (BD Biosciences) and data were analyzed with FlowJo software (TreeStar Inc.).
For detection of cytokines by ELISA, MLN cells and LI-LP lymphocytes were stimulated with 10 μg/ml plate bound anti-CD3 and anti-CD28 antibodies (BioLegend, San Diego, Calif.). Supernatants were collected after 36 hrs and analyzed for IFN-γ and IL-17 production by ELISA (BioLegend, San Diego, Calif.).
Tissue samples from the proximal and distal colon were isolated and homogenized. RNA was isolated by using RNeasy Mini Kit (Qiagen) and reverse transcribed. Real-time RT-PCR analyses were done on the Applied Biosystems 7500 Fast Real-Time PCR System with the SYBR Green PCR kit as instructed by the manufacturer (Applied Biosystems). […] Samples were analyzed for gene expression using the following primers: […]

Assay [2] concerns intestinal fungi. As to the kind of experiment: Depletion of intestinal fungi by fluconazole, colon sections stained with sDEC-1. The format is in vivo, mouse. To be noted: mice treated with fluconazole 0.5 mg/ml in drinking water for 2 weeks; sDEC-1 staining of colon sections. The method, then:
OCT-embedded intestinal specimens were sectioned, mounted on microscope slides and then incubated for 40 min in PBS containing 2% FCS. Murine soluble Dectin-1 (sDec-1) was generated and biotin-labeled as previously described. sDec-1 (10 μg/ml) was fluorescently labeled with streptavidin-Alexa 647 (2 μg/ml, Invitrogen) (sDec-1-Alexa647), and intestinal sections were stained for 1 hr. To block Dectin-1 interaction. sDec-1-Alexa647 was incubated with 1 μg/ml laminarin (soluble β-glucan from Laminaria digitata, Sigma) and intestinal sections were stained as previously described. Alternatively, intestinal sections were stained with FITC conjugated rabbit anti-Candida polyclonal antibody (Meridian Life Science, Cincinnati, Ohio). […] Therefore throughout this study we have referred to the antibody as an “anti-fungal antibody”. Slides were rinsed with PBS and stained for 5 min with 0.1 μg/ml 4′,6-diamidino-2-phenylindole (DAPI, Invitrogen) and overlaid with mounting medium (Vectashield; Vector, Burlingame, Calif.). Slides were examined using a Zeiss Axio Observer Fluorescence microscope. All compared images were collected and processed identically. Colons from Fluconazole (0.5 mg/ml for 2 weeks in the drinking water) treated mice were used in control staining.

[3] abbreviates: fluconazole in drinking water, DSS colitis.

Each structure is given as a SMILES string. “Also recorded” adds a separate entry of the source.

These results are taken from patent US9782389B2, “Fungal mycobiome as probiotics, diagnostics and therapeutics” (Cedars-Sinai Medical Center, priority 2012, dated 2017).

In the case of `OC(Cn1cncn1)(Cn1cncn1)c1ccc(F)cc1F` [fluconazole], the “weight loss during colitis” value in assay [1] is listed as “reduced weight loss”. The “weight loss during colitis” value in assay [1] (listed as Fluconazole) is recorded as “significantly abrogated weight loss”. In addition, in assay [1] (fluconazole in drinking water for 14 days starting 2 days prior to DSS), the colitis overall result is listed as “ameliorates colitis”. Moreover, the “histological disease characteristics (histology score)” value in assay [1] (fluconazole in drinking water, 4 days after the 7 days of DSS) is listed as “milder histological disease characteristics”. In addition, in assay [1] (setting [3]), the “Th1 and Th17 responses (IL-17 and IFN-γ producing CD4+ T cells in LI-LP, production in MLNs)” value was “decreased Th1 and Th17 responses”; the “production of inflammatory cytokines in the colon” value was “decreased production of inflammatory cytokines”. Also, the “presence of fungi in the intestine” value in assay [2] is “substantially reduces the presence of fungi; also recorded: suppressed fungal growth”.
